Series [1] concerns Chromobacterium violaceum (ATCC 12472). The series can be described thus: Antiquorum-sensing assay (violacein pigment inhibition). The class given is cell-based. Conditions: Chromobacterium violaceum, ATCC12472, 48 h, read-out: Diameter of quorum-sensing inhibition C. violaceum. An excerpt: The synthesized thiadiazolopyrimidine-based compounds were screened for their antiquorum-sensing (anti-QS) inhibition activity by the Chromobacterium violaceum (ATCC 12472) technique using catechin as the standard compound[28]–[30]. The QS technique of C. violaceum was remarked by the detection of violacein (violet pigment)[31],[32]. Meanwhile, the reactivity of the synthesized thiadiazolopyrimidine-containing derivatives as drugs depends on their efficiency to inhibit the liberation of violacein during the QS technique. The QS inhibition was determined by the following equation: QS inhibition (mm) = (r2 − r1), where r1 is the inhibition radius of the bacterial growth and r2 is the inhibition radius for growth as well as the release of the pigment.
The anti-QS inefficiency was evaluated using the previous technique mentioned in the literature.
The culture was prepared by growing Ch. violaceum ATCC 12472 in LB broth and incubated for 16–18 h in an orbital incubator running at 28°C and 150 rpm. The culture was then adjusted to 0.5 McFarland standard (ca. 1 × 10^6 CFU/mL). Ch. violaceum (50 µL) was inoculated into LB agar (50 mL), poured into plates, and solidified. Wells were made in LB agar medium using cork borer. The tested compounds were dissolved in DMSO 100% in Eppendorf tubes for final concentration of 5 mg/mL, and 50 µL of the test solution was applied into the wells. The positive control (catechin) was also added at the same concentration and volume to each plate. In addition, DMSO (control solvent) was added to each plate. […] Bacterial growth inhibition by the tested compounds was measured as radius (r1) in mm, while both growth and pigment inhibition was measured as radius (r2) in mm. The pigment inhibition (QS inhibition) was determined by subtracting bacterial growth inhibition (r1) from the total radius (r2); thus, QS inhibition = (r2 - r1) in mm.

The test system of another series is Candida albicans. The series can be described thus: Antifungal MIC, two-fold serial dilution. The class given is cell-based. Conditions: Fungi, glucose minimal medium, 30°C, 48 h, visual (no turbidity). As to the method:
(§1) The antimicrobial activity of the synthesized thiadiazolopyrimidine compounds was studied toward diverse pathogenic strains, such as gram-positive bacteria (Staphylococcus aureus ATCC 29213 and Bacillus cereus UW85), gram-negative bacteria (Escherichia coli ATCC 12435 and Pseudomonas aeruginosa ATCC 29260), and fungi (Candida albicans and Aspergillus fumigatus 293). The assessment was performed through the two-fold dilution technique using Ampicillin (antibacterial) and Fluconazole (antifungal) as the reference drugs[28],[29]. The minimal inhibitory concentration (MICs, µg/mL) of the synthesized derivatives for prohibiting microbial growth was determined through the visual detection (no turbidity) technique.
(§2) The synthesized thiadiazolopyrimidine-based compounds were evaluated and adopted for antibacterial and antifungal effectiveness using the approved procedure[38],[39].
(§3) Minimal inhibitory concentrations (MICs) were determined by serial dilution technique using 96-multiwell microtiter plates. The investigated compounds were dissolved in DMSO 100% to prepare stock solutions of 5000 µg/mL. Two-fold serial dilutions of the dissolved compounds were performed in glucose minimal medium providing eight different concentrations (1250, 625, 312.5, 156, 78, 39, 19.5 µg/mL). The microorganisms were diluted to 1 ×10^3 SFU/mL in glucose minimal medium, and 20 µL of the diluted culture was added to the test solutions (50 µL) in the wells (one well per concentration). The plates were incubated at 30°C for 48 h. MIC was detected visually as the least concentration inhibiting fungal growth (no turbidity) and the activity of the tested compounds was estimated in comparison to fluconazole.

Series [2] deals with Aspergillus fumigatus 293. Put plainly: Antifungal MIC, two-fold serial dilution. Conditions: Fungi, glucose minimal medium, 30°C, 48 h, visual (no turbidity). The series is classed as cell-based. As to the method:
as §1, §2, §3

Converted amounts (≈) assume the structure as drawn.

The values that follow come from publication PMC8333053, “Synthesis and biological screening of new thiadiazolopyrimidine-based polycyclic compounds” (Scientific Reports, 2021).

A word on the MIC: it is the least concentration at which growth counts as inhibited. A low value points to greater potency. As usually defined, the melting point is the temperature of the solid-liquid transition.

On to `CC(=O)C1=C(C)OC(N)=C2C(=O)N=C3SC=NN3C12` (stereo not shown) [Compound 8a, 9-Acetyl-6-amino-8-methyl-5H,9aH-pyrano[3,4-e][1,3,4]thiadiazolo[3,2-a]pyrimidin-5-one], for which, in series [1], the zone of inhibition at 5000 µg/mL came out at 3 mm. For the same molecule, the minimum inhibitory concentration (MIC) was 312 µg/mL (≈ 1.12 mM) in the series with Candida albicans and above 1250 µg/mL in series [2].

`CC1=C(C(=O)c2ccccc2)C2C(=C(N)O1)C(=O)N=C1SC=NN12` (stereo not shown) [Compound 8b, 6-Amino-9-benzoyl-8-methyl-5H,9aH-pyrano[3,4-e][1,3,4]thiadiazolo[3,2-a]pyrimidin-5-one] came in with a melting point of 239 to 241 °C. Moreover, in series [1], the zone of inhibition at 5000 µg/mL was 12 mm. In the series with Candida albicans, this molecule returned an MIC of 156 µg/mL (≈ 0.458 mM). In series [2], this molecule had an MIC of 1250 µg/mL (≈ 3.67 mM).

Turning to `Cc1cc2nc3c(c(N)n2n1)c(=O)nc1scnn13` [Compound 13, 6-Amino-9-methyl-5H-pyrazolo[1′,5′:1,2]pyrimido[5,4-e][1,3,4]thiadiazolo[3,2-a]pyrimidin-5-one], the melting point was in the range of 304 to 306 °C. Further, in series [1], the zone of inhibition at 5000 µg/mL stood at 5 mm. This molecule gave an MIC against Candida albicans of 1250 µg/mL (≈ 4.57 mM). The molecule further yielded an MIC in series [2] above 1250 µg/mL.

Molecule `N#Cc1cn2ncsc2nc1=O` [Compound 3, 6-cyano-7-oxo-7H-[1,3,4]thiadiazolo[3,2-a]pyrimidine] had a melting point of 264 to 265 °C. For the same molecule, the zone of inhibition at 5000 µg/mL in series [1] is below 2 mm. For the same molecule, the minimal inhibitory concentration (MIC) in the series on Candida albicans was above 1250 µg/mL. The MIC in series [2] was above 1250 µg/mL.

`Nc1nn(-c2ccccc2)c2c1c(=O)nc1scnn12` [Compound 5, 3-Amino-1-phenylpyrazolo[4,3-e][1,3,4]thiadiazolo[3,2-a]pyrimidin-4(1H)-one] displayed a melting point of 254 to 255 °C. The zone of inhibition at 5000 µg/mL in series [1] was below 2 mm. Further, the MIC against Candida albicans is 1250 µg/mL (≈ 4.4 mM). Also, in series [2], the MIC was above 1250 µg/mL.

`N#Cc1c(N)nc(N)c2c(=O)nc3scnn3c12` [Compound 6, 6,8-Diamino-9-cyano-5-oxo-5H-pyrido[3,4-e][1,3,4]thiadiazolo[3,2-a]pyrimidine] came in with a melting point of 302 to 303 °C. Besides, the zone of inhibition at 5000 µg/mL in series [1] is below 2 mm. In addition, in the series on Candida albicans, the MIC is above 1250 µg/mL. In series [2], this molecule registered a minimum inhibitory concentration (MIC) above 1250 µg/mL.

As to `CC1=C(C#N)C2C(=C(N)O1)C(=O)N=C1SC=NN12` (stereo not shown) [Compound 9a, 6-Amino-9-cyano-8-methyl-5-oxo-5H,9aH-pyrano[3,4-e][1,3,4]thiadiazolo[3,2-a]pyrimidine], the melting point fell in the range of 264 to 265 °C. Further, the zone of inhibition at 5000 µg/mL in series [1] came to 11 mm. This molecule displayed a minimal inhibitory concentration (MIC) against Candida albicans of 312 µg/mL (≈ 1.2 mM). In series [2], the MIC was above 1250 µg/mL.

In turn, `CCOC(=O)c1c(N)nc(N)c2c(=O)nc3scnn3c12` [Compound 7, Ethyl 6,8-diamino-5-oxo-5H-pyrido[3,4-e][1,3,4]thiadiazolo[3,2-a]pyrimidine-9-carboxylate] yielded a melting point of 278 to 280 °C. The zone of inhibition at 5000 µg/mL in series [1] is below 2 mm. Further, in the series with Candida albicans, the minimal inhibitory concentration (MIC) is above 1250 µg/mL. In series [2], the MIC is above 1250 µg/mL.

Molecule `Cc1ccc(N=Nc2c(O)nn3c(N)c4c(=O)nc5scnn5c4nc23)cc1` [Compound 17a, 6-Amino-9-hydroxy-10-(4-methylphenylazo)-5H-pyrazolo[1′,5′:1,2]pyrimido[5,4-e][1,3,4]thiadiazolo[3,2-a]pyrimidin-5-one] registered a melting point of 264 to 265 °C. Further, the zone of inhibition at 5000 µg/mL in series [1] came to 11 mm. For the same molecule, the MIC against Candida albicans was above 1250 µg/mL. It took 1250 µg/mL (≈ 3.18 mM) to inhibit growth in series [2] (MIC).

The molecule `Nc1c2c(=O)nc3scnn3c2nc2nnnn12` [Compound 11, 6-Amino-5H-[1,3,4]thiadiazolo[2′,3′:2,3]pyrimido[4,5-d]tetrazolo[1,5-a]pyrimidin-5-one] showed a melting point of 274 to 275 °C. Also, the zone of inhibition at 5000 µg/mL in series [1] amounted to 5 mm. Further, the MIC with Candida albicans was determined as 1250 µg/mL (≈ 4.79 mM). Moreover, the MIC in series [2] is above 1250 µg/mL.

Molecule `Cc1ccc(N=Nc2c(N)nn3c(N)c4c(=O)nc5scnn5c4nc23)cc1` [Compound 16a, 6,9-Diamino-10-(4-methylphenylazo)-5H-pyrazolo[1′,5′:1,2]pyrimido[5,4-e][1,3,4]thiadiazolo[3,2-a]pyrimidin-5-one] returned a melting point above 320 °C. The zone of inhibition at 5000 µg/mL in series [1] is 9 mm. Also, the MIC against Candida albicans was above 1250 µg/mL. This molecule also came in with an MIC in series [2] above 1250 µg/mL.

Molecule `N#CC1=C(c2ccccc2)OC(N)=C2C(=O)N=C3SC=NN3C12` (stereo not shown) [Compound 9b, 6-Amino-9-cyano-5-oxo-8-phenyl-5H,9aH-pyrano[3,4-e][1,3,4]thiadiazolo[3,2-a]pyrimidine] registered a melting point of 258 to 260 °C. In series [1], the zone of inhibition at 5000 µg/mL came to 3 mm. The minimum inhibitory concentration (MIC) in the series with Candida albicans was 312 µg/mL (≈ 0.966 mM). The MIC in series [2] was above 1250 µg/mL.

The molecule `COc1ccc(N=Nc2c(N)nn3c(N)c4c(=O)nc5scnn5c4nc23)cc1` [Compound 16b, 6,9-Diamino-10-(4-methoxyphenylazo)-5H-pyrazolo[1′,5′:1,2]pyrimido[5,4-e][1,3,4]thiadiazolo[3,2-a]pyrimidin-5-one] showed a melting point above 320 °C. In addition, the zone of inhibition at 5000 µg/mL in series [1] is 12 mm. Further, the MIC with Candida albicans was above 1250 µg/mL. This molecule also showed an MIC in series [2] above 1250 µg/mL.

As for `Nc1c2c(=O)nc3scnn3c2nc2nncn12` [Compound 12, 6-Amino-5H-[1,2,4]triazolo[4′,3′:1,2]pyrimido[5,4-e][1,3,4]thiadiazolo[3,2-a]pyrimidin-5-one], the melting point lay within 290 to 291 °C. Further, the zone of inhibition at 5000 µg/mL in series [1] came to 3 mm. The molecule further came in with a minimum inhibitory concentration (MIC) in the series on Candida albicans above 1250 µg/mL. In series [2], this molecule had a minimal inhibitory concentration (MIC) above 1250 µg/mL.

On to `Nc1n[nH]c2c1c(=O)nc1scnn12` [Compound 4, 3-Aminopyrazolo[4,3-e][1,3,4]thiadiazolo[3,2-a]pyrimidin-4(1H)-one], for which the melting point lay in the range of 281 to 282 °C. For the same molecule, the zone of inhibition at 5000 µg/mL in series [1] is below 2 mm. Besides, the MIC with Candida albicans is above 1250 µg/mL. This molecule also came in with an MIC in series [2] above 1250 µg/mL.

As for `Cc1n[nH]c2c1C1C(=C(N)O2)C(=O)N=C2SC=NN21` (stereo not shown) [Compound 10a, 6-Amino-10-methyl-8,10b-dihydro-5H-pyrazolo[4′,3′:5,6]pyrano[3,4-e][1,3,4]thiadiazolo[3,2-a]pyrimidin-5-one], in series [1], the zone of inhibition at 5000 µg/mL was determined as 13 mm. Besides, the minimum inhibitory concentration (MIC) is 625 µg/mL (≈ 2.26 mM) in the series on Candida albicans and above 1250 µg/mL in series [2].

Turning to `COc1ccc(N=Nc2c(O)nn3c(N)c4c(=O)nc5scnn5c4nc23)cc1` [Compound 17b, 6-Amino-9-hydroxy-10-(4-methoxyphenylazo)-5H-pyrazolo[1′,5′:1,2]pyrimido[5,4-e][1,3,4]thiadiazolo[3,2-a]pyrimidin-5-one], the melting point lay within 280 to 281 °C. The zone of inhibition at 5000 µg/mL in series [1] came out at 12 mm. The molecule also displayed an MIC against Candida albicans of 1250 µg/mL (≈ 3.05 mM). For the same molecule, the minimum inhibitory concentration (MIC) in series [2] was determined as 1250 µg/mL (≈ 3.05 mM).

With `Cc1nn(-c2ccccc2)c2c1C1C(=C(N)O2)C(=O)N=C2SC=NN21` (stereo not shown) [Compound 10b, 6-Amino-10-methyl-8-phenyl-8,10b-dihydro-5H-pyrazolo[4′,3′:5,6]pyrano[3,4-e][1,3,4]thiadiazolo[3,2-a]pyrimidin-5-one], the melting point was in the range of 266 to 267 °C. Also, the zone of inhibition at 5000 µg/mL in series [1] came to 9 mm. In addition, the MIC in the series on Candida albicans was above 1250 µg/mL. This molecule also displayed a minimal inhibitory concentration (MIC) in series [2] above 1250 µg/mL.
